Entries after “also recorded” stand apart in the source; their conditions may differ.
Legend:
[1] = Washtest with liquid detergent and sensory evaluation of fabric by expert panel; conditions: for odour released on dry fabric: comparison of double bond position Δ-2, Δ-3, Δ-4
Protocol: The wet and line-dried fabric (1 and 4 days) was assessed by a panel of 4-6 experts with regard to odour intensity and quality. The odour intensity was recorded on an intensity scale of 0 (odourless) to 5 (extremely strong).
The odour intensity was recorded on an intensity scale of 0 (odorless) to 5 (extremely strong).
Heavy duty liquid detergent samples were prepared and used in washtests and subsequent sensory evaluation of the washed and dried fabric as described in Example 60a and c. The odour intensity was recorded on an intensity scale of 0 (odourless) to 5 (extremely strong).

[2] = Odour description on paper blotter; conditions: 1% solution in EtOH on paper blotter, 24 h
[3] = Application in shampoo base: sensory evaluation of washed hair swatches by expert panel; set-up: species or system human; conditions: Table 4; for odour intensity, wet / odour on dry hair: 0.2% by weight in shampoo base; for odour intensity, wet: wet hair swatch, scale 0 (odourless) to 5 (extremely strong); for odour intensity, 1 day: dried hair swatch 1 day; for odour intensity, 1 day / odour intensity, 3 days: scale 0 to 5; for odour intensity, 3 days: dried hair swatch 3 days
Protocol: Odour-neutral human hair swatches were wetted with warm tap water and lathered delicately with 2 mL of the above hair shampoo samples for 30 sec by hand wearing gloves. The lathered hair swatches were left in a plastic bowl for 2 min, then rinsed under running tap water for 20 sec. After removing excess water by squeezing the hair swatches between two fingers, they were left to dry in open air. The wet and dried hair swatches (1 and 3 days) were assessed by a panel of 4-6 experts with regard to odour intensity and quality. The odour intensity was recorded on an intensity scale of 0 (odourless) to 5 (extremely strong).

[4] = Biodegradability, manometric respirometry test (OECD 301F); conditions: pass level 60% oxygen consumption of theory
Source text: The results of the biodegradability assessment by the manometric respirometry test (OECD guideline for the testing of materials No. 301F, Paris 1992) are summarized in Table 6.
A compound can be classified biodegradable, if it reaches the pass level of 60% oxygen consumption of theory required for complete mineralization.
It is readily biodegradable, if the pass level is reached within 10 days within the 28-day period of the test. The 10-day window begins when the degree of biodegradation has reached 10%. If the pass level is obtained after 28-day period of the test, the compound can be classified as inherently biodegradable.

[5] = Washtest with liquid detergent and sensory evaluation of fabric by expert panel; conditions: Table 2; dry fabric 3 days; scale 0 to 5
[6] = Colour stability in liquid detergent base (visual inspection); type: physicochemical; conditions: 0.2% by weight in unperfumed liquid detergent base, compared to unperfumed base
Source text: The above prepared samples were visually inspected in comparison to an unperfumed base sample (sample C).

[7] = Table 3, dry fabric 1 day, scale 0 to 5
[8] = Table 3, dry fabric 4 days, scale 0 to 5
[9] = Table 3, heavy duty liquid detergent washtest
[10] = Table 3, heavy duty liquid detergent washtest, wet fabric, scale 0 to 5
[11] = Table 2, dry fabric 1 day, scale 0 to 5
[12] = Table 2, liquid detergent washtest
[13] = Table 2, liquid detergent washtest, wet fabric, scale 0 (odorless) to 5 (extremely strong)

| Compound | odour intensity, 1 day [1, 7] | odour intensity, 4 days [1, 8] | odour intensity, wet [1, 10] | Odour description [2] | odour intensity, wet [3] | odour intensity, 1 day [3] | odour intensity, 3 days [3] | further results |
| --- | --- | --- | --- | --- | --- | --- | --- | --- |
| C=CCC(CC/C=C\CC)Oc1cc(C)c(C(=O)OC)c(O)c1C (centres unmarked) [Example 69, methyl (Z)-4-(deca-1,7-dien-4-yloxy)-2-hydroxy-3,6-dimethylbenzoate] | 1.9 | 2.5 | 0.5 | powdery green marine (evernyl) |  |  |  | odour on dry fabric [1, 9]: mossy, woody |
| C=CCC(CCCCCCCCCC)Oc1ccc(C=O)cc1OC (centres unmarked) [Example 38, 3-methoxy-4-(tetradec-1-en-4-yloxy)benzaldehyde] | 3.0 | 3.2 | 2.2 | powdery, vanilla, creamy, aldehydic, mandarin, madeleine |  |  |  | odour on dry fabric [1, 9]: madeleine |
| CCCCCCCCC(C)=CCCOc1ccc(C=O)cc1OCC [Example 90, 3-ethoxy-4-((4-methyldodec-3-en-1-yl)oxy)benzaldehyde] |  |  |  | powdery, vanilla, creamy, slightly green, sesame seed, sharp, technical | 1.1 | 2.7 | 2.9 |  |
| CC/C=C\CC(CCCCC)Oc1ccc(C=O)cc1OCC (centres unmarked) [Example 17, (Z)-3-ethoxy-4-(undec-3-en-6-yloxy)benzaldehyde] |  |  |  | powdery (dry, vanilla, chocolate) |  |  |  | Biodegradation in % [4]: 86% |
| C=CCC(CCCCCCCCC)Oc1ccc(CCC(C)=O)cc1 (centres unmarked) [Example 36, 4-(4-(tridec-1-en-4-yloxy)phenyl)butan-2-one] |  |  |  | fruity, juicy, raspberry, aldehydic, green, metallic | 2.3 | 1.9 | 1.6 |  |
| CC/C=C\C/C=C\COc1ccc(C=O)cc1OCC [3-ethoxy-4-(((2Z,5Z)-octa-2,5-dien-1-yl)oxy)benzaldehyde, reference compound] |  |  |  |  |  |  |  | odour intensity, 1 day [1, 11]: 2.8; odour on dry fabric [1, 12]: metallic; odour intensity, wet [1, 13]: 0.9; odour released on dry fabric [1]: weak and unpleasant odours; odour intensity, 3 days [5]: 2.3 |
| CCCCCC[C@@H](C/C=C\CCCCCCCC(=O)OC)Oc1ccc(C=O)cc1OCC [Example 1, methyl (S,Z)-12-(2-ethoxy-4-formylphenoxy)octadec-9-enoate] |  |  |  | powdery, vanillin, green, fatty |  |  |  | Biodegradation in % [4]: 90% |
| COc1ccc(CCC(C)=CCCOc2ccc(CCC(C)=O)cc2)cc1 [Example 55, 4-(4-((6-(4-methoxyphenyl)-4-methylhex-3-en-1-yl)oxy)phenyl)butan-2-one] |  |  |  | sweet, fruity, raspberry | 1.1 | 2.8 | 3.0 |  |
| CC/C=C\CCC(CCCCCCCCC)Oc1ccc(C=O)cc1OCC (centres unmarked) [(Z)-3-ethoxy-4-(hexadec-3-en-7-yloxy)benzaldehyde, reference compound] |  |  |  |  |  |  |  | odour intensity, 1 day [1, 11]: 1.2; odour on dry fabric [1, 12]: rubbery, metallic; odour intensity, wet [1, 13]: 1.1; odour released on dry fabric [1]: weak and unpleasant odours; odour intensity, 3 days [5]: 1.6 |
| CC/C=C\CC(CCCCCCCCC)Oc1ccc(C=O)cc1OCC (centres unmarked) [Example 28, (Z)-3-ethoxy-4-(Pentadec-3-en-6-yloxy)benzaldehyde] | 2.3 | 2.6 | 2.1 | powdery, creamy, vanilla, aldehydic, mandarin | 1.7 | 3.5 | 4.4 | odour intensity, 1 day ([1]; Table 1, line-dried fabric 1 day, scale 0 to 5): 2.3; odour intensity, 4 days ([1]; Table 1, line-dried fabric 4 days, scale 0 to 5): 2.6; odour intensity, wet ([1]; Table 1, liquid detergent 0.2% by weight, 40° C. machine wash, cotton/elastan fabric, wet, scale 0 (odourless) to 5 (extremely strong)): 2.1; odour released from washed fabric ([1]; liquid detergent washtest, dry fabric): mandarin, vanilla and powdery fragrance; Colour of liquid detergent sample (visual inspection) [6]: optically identical to the unperfumed base; odour on dry hair [3]: mandarin, vanilla |
| CCOc1cc(C=O)ccc1OCCC=CC(C)CCC=C(C)C (centres unmarked) [Example 84, 4-((5,9-dimethyldeca-3,8-dien-1-yl)oxy)-3-ethoxybenzaldehyde] |  |  |  | powdery, vanilla, chocolate milk, slightly fresh, fatty, watery, melon | 0.7 | 2.7 | 3.6 |  |
| CC/C=C\C/C=C\CCOc1ccc(C=O)cc1OCC [Example 30, 3-ethoxy-4-(((3Z,6Z)-nona-3,6-dien-1-yl)oxy)benzaldehyde] | 3.4 | 4.1 | 2.7 | green, leaf aldehyde, green apple, powdery, vanilla |  |  |  | odour intensity, 1 day [1, 11]: 3.4; odour on dry fabric [1, 12]: vanilla, green; odour intensity, wet [1, 13]: 2.7; odour released on dry fabric [1]: strong and pleasant odour; odour intensity, 3 days [5]: 4.1 |
| CCCCCC(C)=CCCOc1ccc(C=O)cc1OCC [Example 42, 3-ethoxy-4-((4-methylnon-3-en-1-yl)oxy)benzaldehyde] | 2.8 | 3.3 | 2.1 | powdery, vanilla, sweet, sugary | 1.0 | 1.4 | 1.9 | odour on dry hair [3]: vanilla, sweet |
| CC/C=C/CC(CCCCCCCCC)Oc1ccc(C=O)cc1OCC (centres unmarked) [Example 29, (E)-3-ethoxy-4-(pentadec-3-en-6-yloxy)benzaldehyde] |  |  |  | powdery, creamy, vanilla, aldehydic, mandarin |  |  |  | Biodegradation in % [4]: 70% |
| CC(=O)CCc1ccc(OCCC=C(C)CCc2ccccc2)cc1 [Example 52, 4-(4-((4-methyl-6-phenylhex-3-en-1-yl)oxy)phenyl)butan-2-one] | 2.9 | 3.3 | 1.6 | sweet, crystal sugar, fruity, raspberry |  |  |  | odour on dry fabric [1, 9]: raspberry, sweet |
| CCOc1cc(C=O)ccc1O [ethylvanillin, 3-ethoxy-4-hydroxybenzaldehyde] |  |  |  |  |  |  |  | Colour of liquid detergent sample (visual inspection) [6]: strong purple coloration; also recorded: colors the base |
| C=CCC(CC/C=C\CC)Oc1ccc(C=O)cc1OCC (centres unmarked) [Example 12, (Z)-4-(deca-1,7-dien-4-yloxy)-3-ethoxybenzaldehyde] | 3.0 | 3.7 | 0.4 | powdery (vanilla) |  |  |  |  |
| C=CCc1ccc(OC(CC=C)CCCCCCCCC)c(OC)c1 (centres unmarked) [4-allyl-2-methoxy-1-(tridec-1-en-4-yloxy)benzene] | 2.1 | 2.7 | 2.1 |  |  |  |  |  |
| CCCCCC[C@@H](C/C=C\CCCCCCCC(=O)OC)Oc1ccc(CCC(C)=O)cc1 [Example 2, methyl (S,Z)-12-(4-(3-oxobutyl)phenoxy)octadec-9-enoate] |  |  |  | powdery fruity raspberry, green, fatty |  |  |  | Biodegradation in % [4]: 88% |
| CCOc1cc(C=O)ccc1OCCC=C(C)CCc1ccccc1 [Example 47, 3-ethoxy-4-((4-methyl-6-phenylhex-3-en-1-yl)oxy)benzaldehyde] | 2.7 | 3.0 | 1.5 | sweet, vanilla, ice cream, powdery, fruity, raspberry, sorbet | 1.4 | 2.7 | 2.1 |  |
| CCCCCCC(C/C=C\CCCCCCCC(=O)OC)Oc1ccccc1OC (centres unmarked) [Example 45, methyl (Z)-12-(2-methoxyphenoxy)octadec-9-enoate] |  |  |  | phenolic, medicinal, guaiacol, vanilla absolute, peru balsam |  |  |  |  |
